In US9624235B2, “Compounds and methods for inhibition of AP endonuclease-1/redox factor-1 (HAPE1) activity” (University of Pittsburgh—Of the Commonwealth System of …, priority 2012, dated 2017):
Where two headings read alike, the source gives them in different places.

Experiments:
[1] = molecular target: APE-1 activity in T98G cell nuclear lysates (Homo sapiens (Human), UniProt P27695); experiment: Molecular beacon assay in T98G cell nuclear extracts; format: biochemical
Description: Isolation and Assay of APE-1 Protein from Nuclear Extracts of Glioma Cells. Human glioblastoma cells (T98G) were maintained in growth medium, i.e., Eagle's Minimum Essential Medium (EMEM) with 10% fetal bovine serum (FBS), […] gentamycin, 1×MEM non-essential amino acids and 1 mM sodium pyruvate. Cells were harvested by Trypsin-EDTA treatment, washed with 1×PBS and nuclear proteins isolated using the CelLytic NuCLEAR Extraction kit (Sigma-Aldrich) as per manufacturer's instructions. Isolated nuclear proteins were estimated colorimetrically (BCA protein assay) and stored at −80° C. (long term) or at −20° C. during regular use. To assay APE-1 activity in T98G cells, nuclear extracts were serially diluted in 10 mM HEPES, 50 mM KCl, 1 mM DTT, 20% (v/v) glycerol and the activities measured via the molecular beacon assay (as described above). […] EC2 nM of nuclear extracts was incubated with 2 to 500 nM hairpin DNA substrate and the V0 measured for each value of [S]. Finally, the apparent KM* was deduced using the software algorithm in Prism (as described previously), and the KM* was used to determine the apparent Ki*. Inhibition of EC2 nM APE-1 activity by the inhibitors was assayed via the molecular beacon assay (described above).
Inhibition of APE-1 Activity in Nuclear Lysates. The ability of 1-5 and 8 to block APE-1 endonuclease activity in a complex mixture of proteins from T98G cell nuclear lysates was tested using the molecular beacon assay. The APE-1 activity in the lysates was standardized to give ˜90% turnover of 25 nM substrate in 10 min.

T98G cells = experiment: Short term (72 h) MTS cytotoxicity assay; format: cell-based, human
Description: Cytotoxic Effects of APE-1 Inhibitors on Cultured Human Glioblastoma (T98G) Cells. Human glioblastoma cells (T98G) were maintained in growth medium as described above. […] The cells were allowed to attach and grow for 24 h, and then treated with serial dilutions of the drug for 72 h. After treatment, viable cells were measured by an MTS assay using the CellTiter 96 AQueous kit (Promega) as per manufacturer's instructions. […] The cells were allowed to attach and grow for 24 h and treated with serial dilutions of the drug for 240 h. After treatment, viable cells were measured using the CyQUANT cell proliferation assay kit (Invitrogen) as per manufacturer's instructions.
Toxicity. It was assumed that inhibition of APE-1 activity would be lead to toxicity since genetic deletion of the protein is lethal to cells. […] The toxicities were also determined in combination with the DNA minor groove methylating agent, MeLex. MeLex efficiently and selectively generates N3-methyladenine, which is converted into an abasic site by a BER glycosylase and/or hydrolytic depurination. The T98G cell line is relatively resistant to DNA damaging anticancer agents due to expression of multiple drug resistance proteins and O^6-alkylguanine-DNA alkyltransferase. […] A goal of the development of APE-1 inhibitors is to determine if they can be used to enhance the activity of DNA alkylating agents.

[2] = system: aldehyde reactive sites in genomic DNA from T98G cells; format: cell-based, human
Description: Quantification of Abasic Sites. T98G cells maintained in growth medium, were harvested by Trypsin-EDTA treatment, resuspended in fresh growth medium at a density of 2.5×10^5 cells mL^−1, and 2 mL (5×10^5 cells) of this suspension was seeded into the wells of a sterile 6-well tissue culture plate. Cells were allowed to grow for 24 h, treated with the various compounds for different time points and/or at different concentrations. At the end of each treatment, adherent cells were harvested by trypsin-EDTA treatment and pooled with live and dead cells in culture supernatant. Pooled cells in suspension were pelleted by centrifugation, washed with 1×PBS and genomic DNA was isolated using the DNAzol reagent (Invitrogen). DNA in solution was quantified by UV absorbance (λ260 nm) using a Synergy H1 multiwell plate reader (BioTek, Winooski, Vt.). Abasic sites in purified DNA were then reacted with the biotin-conjugated aldehyde reactive probe (ARP), immobilized onto 96-well ELISA plates, and detected using horseradish peroxidase (HRP)-conjugated streptavidin using a colorimetric substrate as per manufacturer's instructions (Dojindo Molecular Technologies, Rockville, Md.).
The biotin tagged ARS are quantified using an avidin-biotin assay, followed by colorimetric detection with horseradish peroxidase conjugated to avidin.

leukemia cell lines = experiment: NCI 60 cell line growth inhibition; format: cell-based
SK-MEL-5 (melanoma) line = experiment: NCI 60 cell line growth inhibition; format: cell-based; conditions: Homo sapiens; 4 alone, SK-MEL-5 line
SK-MEL-5 melanoma cells = experiment: Combination of APE1 inhibitor 4 with approved anticancer drugs, NCI60 cell line assay; format: cell-based; conditions: preliminary screen
Text: FIG. 5. An example of the enhanced activity of vemurafenib in combination with APE1 inhibitor 4 in SK-MEL-5 melanoma cells. Matric controls are run in singlet on each matrix and compared to replicate (n=10) controls for vemurafenib and 4.
APE1 Inhibitor 4 Enhances the Toxicity of Anticancer Drugs in the NCl60 Cell Line Assay—In a preliminary screen using 10 randomly selected cell lines, the effect of APE1 inhibitor 4 on the growth of 20 recently approved non-genotoxic anticancer drugs was assayed.

Chain of APE-1 activity in T98G cell nuclear lysates (P27695 whole entry, stated change not applied): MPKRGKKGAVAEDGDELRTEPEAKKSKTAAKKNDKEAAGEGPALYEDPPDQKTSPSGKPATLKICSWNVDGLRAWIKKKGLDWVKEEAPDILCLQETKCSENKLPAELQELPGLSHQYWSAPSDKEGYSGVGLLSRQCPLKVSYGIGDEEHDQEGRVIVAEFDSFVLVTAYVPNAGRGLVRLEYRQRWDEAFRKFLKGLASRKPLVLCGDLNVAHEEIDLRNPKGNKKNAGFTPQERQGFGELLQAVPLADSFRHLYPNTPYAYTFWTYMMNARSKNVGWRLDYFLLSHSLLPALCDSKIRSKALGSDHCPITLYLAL

SMILES: CCn1c2ccccc2c2cc(/C=N/Nc3cc(C)nc4cc5c(cc34)OCO5)ccc21 [Compound 4]
- Ki [1]: 210 nM
- LD10 concentration (T98G cells; 72 h MTS assay): 0.25 µM
- LD50 (T98G cells; MTS assay, T98G): 960 nM
- level of ARS ([2]; 0.25 μM compound, maintained from 6 h until 18 h): approximately 17 ARS/10^5 nucleotides
- level of ARS in combination with MeLex ([2]; 80 μM MeLex + 0.25 μM inhibitor, through at least 12 h): 63 sites/10^5 nucleotides
- GI50 (leukemia cell lines; 60 cell, 6 leukemia cell lines, read-out: GI50 overall average leukemia cell lines): 1800 ± 2900 nM
- GI50 (leukemia cell lines; Homo sapiens, HL-60 omitted, read-out: GI50 leukemia cell lines, HL-60 line omitted): 640 ± 400 nM
- GI50 (SK-MEL-5 (melanoma) line): 4000 nM
- effect in combination with Vemurafenib (SK-MEL-5 melanoma cells): >additive
